Test results as given in patent publication US20070142396A1, “Treatment of pain with 1-[3-[4-(3-chlorophenyl)-1-piperazinyl]propyl]-5-methoxy-3,4-dihydro-2(1H)-quinolone or salt thereof” (Vela Pharmaceuticals, Inc., priority 2005, published 2007).

What was measured:
[1] = system: rats with L5 spinal nerve ligation (SNL model); assay: Spinal nerve ligation (L5) neuropathic pain model, von Frey filaments, dose range (Example 5); type: in vivo, rat; details: gabapentin 100 mg/kg p.o.
Source text: (§1) The spinal nerve ligation (SNL) model of neuropathic pain was produced in all rats as described by Kim and Chung (Pain, 50, 355-363, 1992). Briefly, under gaseous anesthesia using halothane (3% for induction and 1.5% for maintenance) in oxygen, the left L5 spinal nerve was exposed by removing the paraspinal muscles and the transverse process of the L6 vertebra. The very proximal portion of the L5 spinal nerve was tightly ligated with 6-0 silk suture. The wounds were closed and anesthesia was discontinued. Rats were kept on a heated blanket until they had completely recovered from anesthesia.
Behavioral tests were conducted in a non-blind fashion. The foot withdrawal threshold to mechanical stimuli applied to the paw (mechanical threshold) was measured, as an indicator of mechanical sensitivity of the affected paw. The foot withdrawal threshold was measured using von Frey filaments. It is generally thought that von Frey filaments are more sensitive than electronic von Frey probes for measuring tactile stimulation. The mechanical thresholds were measured by using the “up-and-down” method (Chaplan et al., J. Neurosci. Methods 53(1):55-63, 1994), following the procedures described in previous studies (Park et al., Pain 87(2):171-179, 2000; Xie et al., J. Pain 2(5):270-278, 2001; Baik et al., J. Pain 4:212-221, 2003). In brief, rats were placed in a transparent plastic box on a metal wire mesh floor. To determine the threshold stiffness required for 50% paw withdrawal, a series of eight von Frey filaments with approximately equal logarithmic incremental (0.22) von Frey values (3.65, 3.87, 4.10, 4.31, 4.52, 4.74, 4.92, and 5.16) were used. Von Frey (VF) values are logarithmically related to gram (g) values (VF=log (10,000×g)). The chosen von Frey values are therefore equivalent to 0.45, 0.74, 1.26, 2.04, 3.31, 5.50, 8.32, and 14.45 in gram value, respectively. Starting with filament 4.31, von Frey filaments were applied perpendicularly to the ventral surface of the proximal part of the third or fourth toe for 2-3 seconds. Whenever a positive response to a stimulus occurred (paw withdrawal), the next smaller von Frey hair was applied. Whenever a negative response occurred, the next larger one was applied. The test was continued until the response of six stimuli after the first change in response had been obtained or the test had reached either end of the spectrum of the von Frey set.
The 50% threshold value was then calculated using Dixon's formula (Dixon, Ann. Rev. Phar. Tox. 20:441-462, 1980): 50% threshold=X+kd, where X is the value of the final von Frey hair used (in log units), k is the tabular value for the pattern of positive/negative responses, and d is the mean difference between stimuli in log units (0.22). In the cases where continuous positive or negative responses were observed all the way out to the end of the stimulus spectrum, values of 3.54 or 5.27 were assigned, respectively, by assuming a value of (−/+) 0.5 for k in these cases (Dixon, supra, 1980). Outcome of behavioral data were expressed as von Frey values (maximum range from 3.54 to 5.27) and plotted in a linear scale.
Data were expressed as the mean±standard errors of mean (SEM). Differences in mechanical thresholds at various times after injections were tested using two-way (time and group factors) analysis of variance (ANOVA), followed by the Duncan's post-hoc test for multiple comparisons. Statistical analyses were done using the SAS® software program (SAS Institute Inc, Cary, N.C.). Two-tailed p-values<0.05 were considered to be significant.
This experiment was conducted on 8 rats in a Latin-square design examining a dose response of OPC-14523. Gabapentin was prepared at 10 mg/ml in 0.5% tragacanth and administered at 100 mg/kg p.o. Behavioral tests were conducted in a blind fashion twice (1 day and 1 hour) before as well as 1 and 4 days after the neuropathic surgery. […] These 8 rats were randomly divided into 6 groups of 1-2 rats. […]

[2] = system: rats with L5 spinal nerve ligation (SNL model); assay: Spinal nerve ligation (L5) neuropathic pain model, mechanical threshold with von Frey filaments (Example 4); type: in vivo, rat; details: gabapentin 50 mg/kg i.p.
Source text: A total of 18 Sprague-Dawley (CD sub-strain) young adult (weight: 150-175 g) male rats were purchased from Harlan Sprague Dawley Company (Indianapolis, Ind.), Alabama colony. The rats were kept three per cage and had free access to food and water. Animals were kept in a room with a reversed light-dark cycle (light: 8:00 PM-8:00 AM) for 1 week before experimental manipulations. Ten rats were allocated to the present study. Eight rats were allocated to the study of Example 5, below.
as §1
OPC-14523 was dispersed in 0.5% tragacanth in distilled water at 20 mg/ml. It was administered as a oral injection in a dose of 100 mg/kg body weight. Gabapentin was prepared at 10 mg/ml in saline and was administered at 50 mg/kg body weight i.p. Gabapentin is a drug that was originally developed as an anticonvulsant but is now widely used as an analgesic for neuropathic pain (Abdi et al., Anesthesia & Analgesia 87:1360-1366 (1998)).
Ten rats were utilized in a Latin-square-design study comparing the activity of OPC-14523 and other compounds against neuropathic pain. Behavioral tests were conducted twice (1 day and 1 hour) before, as well as 1 and 4 days after, the neuropathic surgery. […] The ten rats were randomly divided into five groups of two rats each. […]
This procedure was repeated five times. […] The result was that all ten animals received each of the indicated five compounds in random order and then had mechanical thresholds determined at the indicated times.
Behavioral tests were conducted in a non-blind fashion. The foot withdrawal threshold to mechanical stimuli applied to the paw (mechanical threshold) was measured, as an indicator of mechanical sensitivity of the affected paw. The foot withdrawal threshold was measured using von Frey filaments. […] The mechanical thresholds were measured by using the “up-and-down” method (Chaplan et al., J. Neurosci. Methods 53(1):55-63, 1994), following the procedures described in previous studies (Park et al., Pain 87(2):171-179, 2000; Xie et al., J. Pain 2(5):270-278, 2001; Baik et al., J. Pain 4:212-221, 2003). […]

With `NCC1(CC(=O)O)CCCCC1` [Gabapentin, gabapentin, reference compound] the “effect on mechanical threshold of the lesioned paw for foot withdrawals” value [1] was “significant increase”, the “level of mechanical threshold increase relative to threshold prior to ligation” value [2] was “about half of the mechanical threshold observed prior to the ligation” and the “effect on mechanical threshold of the lesioned paw for foot withdrawals” value ([2]; 0.5-6 hours) was “significantly increased”.
